Test results: patent US11022604B2, “Dock derived compound against laminin receptor (37 LR) and uses thereof” (Purdue Research Foundation, priority 2017, dated 2021)

System: PC-3 cells
Assay: Wound healing (scratch) assay
Format: cell-based
Details: PC3, 50 uM, 48 h
Protocol: PC-3 cells were treated with 1, 10, 50 μM C3 or DMSO control after scratch formation and images were recorded using a brightfield microscope as described in the methods. […] Brightfield images were quantified using the t-scratch program and represented as % scratch closure after 48 hours of migration compared to a 0 hour control (n=9, mean±SEM). A one-way ANOVA test was used for statistical analysis (p<0.05).
Wound Healing Assay. PC-3 cells were seeded in 6 well plates at 3×10^5 cells per well in complete media until the cells reached confluency. Three horizontal and three vertical scratches were made in the confluent monolayers using a standard 200 μL pipette tip and cellular debris were removed by washing with 1×DPBS three times. 1×RPMI-1640 supplemented with C3 or DMSO was added and cells were incubated for 48 hours as described previously. […] Images were uploaded and analyzed for scratch geometry using the tscratch program (96). First, global thresholding was performed, then individual images were manually inspected for single image threshold adjustment and scratch geometries were quantified. […] The samples were analyzed using the Dionex UltiMate 3000 RSLC Nano System coupled to the Q Exactive™ HF Hybrid Quadrupole-Orbitrap MS (Thermo Scientific). […] Label free quantitation (LFQ) was performed using a minimum ratio count of 2 with fast LFQ. […]

`O=C(c1cc(F)cc2c1OCOC2)N1CCN(C2c3ccccc3-c3ccccc32)CC1` [Compound C3, [4-(9h-fluoren-9-yl)piperazino](6-fluoro-4h-1,3-benzodioxin-8-yl)methanone] was tested, and the “prevention of wound closure” value was roughly 70%.
